Source: patent US20180215734A1, “PYRIMIDINE DERIVATIVES AS KINASE INHIBITORS AND THEIR THERAPEUTICAL APPLICATIONS” (NantBioScience, Inc., priority 2016, published 2018)
Where two headings read alike, the source gives them in different places.

Experiments:
[1] = Metabolic stability, human liver microsomes; format: in vitro ADME
[2] = Metabolic stability, rat liver microsomes; format: in vitro ADME
[3] = Metabolic stability, mouse liver microsomes; format: in vitro ADME
FGFR1(h) = FGFR1(h) (Homo sapiens, UniProt P11362); test: Kinase assay, FGFR1(h); format: biochemical; conditions: 1 μM
Experimental: (§1) Kinase assay protocols well known to those of ordinary skill in the art were used. Specifically, the buffer composition was as follows: 20 mM MOPS, 1 mM EDTA, 0.01% Brij-35, 5% Glycerol, 0.1% β-mercaptoethanol, 1 mg/mL BSA. Test compounds were initially dissolved in DMSO at the desired concentration, then serially diluted to the kinase assay buffer. In a final reaction volume of 25 μL FGFR1(h) (5-10 mU) and KDR(h) (5-10 mU) are incubated with 8 mM MOPS pH 7.0, 0.2 mM EDTA, 200 μM LRRASLG (Kemptide), 10 mM magnesium acetate and [γ^33P-ATP]. The reaction was initiated by the addition of the MgATP mix. After incubation for 40 minutes at room temperature, the reaction was stopped by addition of 5 μL of a 3% phosphoric acid solution. Ten L of the reaction was then spotted onto a P30 filter mat and washed three times for 5 minutes in 50 mM phosphoric acid and once in methanol prior to drying and scintillation counting. Wells containing substrate but no kinase and wells containing a phosphopeptide control were used to set 0% and 100% phosphorylation value, respectively.
(§2) Of all of the steps in developing a drug, the hardest is finding promising compounds. (See, e.g., Malo et al., “Statistical practice in high-throughput screening data analysis,” Nature Biotechnology, 2006, 24, 167-75.) Kinase inhibitors often also have an anti-proliferative effect. […] The kinase inhibitory activity Compound 19 was tested using the kinase assay described in Example 3. […] These mutations in the tested kinases are thought to play an important role in transformation of some cancers.

KDR(h) = KDR(h) (Homo sapiens, UniProt P35968); test: Kinase assay, KDR(h); format: biochemical
Experimental: as §1, §2

KG1a = test: Inhibition of proliferation (CellTiterblue, 72 hr), KG1a; format: cell-based, human; conditions: 72 hr
Experimental: (§3) A number of studies were performed to analyze the consequences of tyrosine kinase inhibition in cell lines. To do this, 1000 cells are seeded in 27 μl/well in 384-well microplates, which are then placed in a humidified CO2 incubator at 37° C. overnight. The next day, 3 μl/well of 10× concentrated drug is added and the plates are returned to the incubator for 72 hr. After 72 hr incubation, plates are removed and 6 μl/well CellTiterblue (Promega) viability reagent is added. Plates are returned to the incubator for 3 hrs, after which fluorescence measurements are read on the Victor X3 plate reader (Perkin Elmer). Data are analyzed using Excel (Microsoft), and GI50 values are determined using Prism (Graphpad).

SNU16 = test: Inhibition of proliferation (CellTiterblue, 72 hr), SNU16; format: cell-based
Experimental: as §3

Kato III = test: Inhibition of proliferation (CellTiterblue, 72 hr), Kato III; format: cell-based
Experimental: as §3

RT112 = test: Inhibition of proliferation (CellTiterblue, 72 hr), RT112; format: cell-based
Experimental: as §3

TG1a Human AML Xenograft = test: Antitumor efficacy on TG1a human AML xenograft; format: in vivo, mouse; conditions: 20 mg/kg, Qdx10, IP
Experimental: In this Example the antitumor activity of compounds 14, 17, 19, 45, and 48 of the current invention are tested using an art-recognized xenograft model of AML. (“T/C” refers to the ratio of the tumor's size in treated animals versus the tumor size in control untreated animals. “BWC” refers to “body weight change”).

Chain of KDR(h) (P35968 20-1356): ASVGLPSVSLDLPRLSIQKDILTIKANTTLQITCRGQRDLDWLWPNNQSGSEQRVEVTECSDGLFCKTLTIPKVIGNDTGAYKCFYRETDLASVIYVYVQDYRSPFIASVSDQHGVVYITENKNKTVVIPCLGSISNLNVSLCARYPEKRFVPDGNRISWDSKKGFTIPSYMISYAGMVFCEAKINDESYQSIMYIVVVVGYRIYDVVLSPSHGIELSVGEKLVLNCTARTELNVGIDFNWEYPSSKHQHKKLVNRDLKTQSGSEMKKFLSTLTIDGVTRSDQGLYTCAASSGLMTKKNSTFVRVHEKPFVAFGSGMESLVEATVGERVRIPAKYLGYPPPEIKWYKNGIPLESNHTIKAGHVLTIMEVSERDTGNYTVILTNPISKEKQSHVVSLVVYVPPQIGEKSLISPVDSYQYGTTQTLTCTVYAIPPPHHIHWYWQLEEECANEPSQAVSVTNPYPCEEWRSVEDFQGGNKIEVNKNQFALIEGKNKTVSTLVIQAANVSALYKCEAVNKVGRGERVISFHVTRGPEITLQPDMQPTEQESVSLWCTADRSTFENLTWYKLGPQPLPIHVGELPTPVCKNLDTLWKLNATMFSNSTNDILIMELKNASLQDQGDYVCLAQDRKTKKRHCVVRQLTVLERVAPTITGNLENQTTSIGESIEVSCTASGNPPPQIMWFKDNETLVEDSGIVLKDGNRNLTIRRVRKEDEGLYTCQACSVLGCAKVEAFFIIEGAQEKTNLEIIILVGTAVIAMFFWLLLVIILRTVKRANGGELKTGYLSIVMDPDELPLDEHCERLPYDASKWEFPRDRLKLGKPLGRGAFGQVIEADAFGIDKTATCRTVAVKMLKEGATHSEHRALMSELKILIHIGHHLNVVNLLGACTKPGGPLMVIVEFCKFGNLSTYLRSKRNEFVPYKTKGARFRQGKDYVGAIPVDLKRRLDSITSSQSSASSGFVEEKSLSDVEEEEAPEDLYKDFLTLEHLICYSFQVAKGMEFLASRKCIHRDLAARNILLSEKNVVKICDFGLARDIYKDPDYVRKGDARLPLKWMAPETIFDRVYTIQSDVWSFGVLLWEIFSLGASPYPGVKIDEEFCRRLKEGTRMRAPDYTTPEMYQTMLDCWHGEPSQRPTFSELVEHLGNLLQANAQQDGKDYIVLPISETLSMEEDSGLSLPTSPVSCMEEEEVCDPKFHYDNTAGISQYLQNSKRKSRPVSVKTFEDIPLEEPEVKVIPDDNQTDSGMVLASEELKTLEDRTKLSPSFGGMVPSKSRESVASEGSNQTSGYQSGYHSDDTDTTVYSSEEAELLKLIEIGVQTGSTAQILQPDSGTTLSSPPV
Chain of FGFR1(h) (P11362 22-822): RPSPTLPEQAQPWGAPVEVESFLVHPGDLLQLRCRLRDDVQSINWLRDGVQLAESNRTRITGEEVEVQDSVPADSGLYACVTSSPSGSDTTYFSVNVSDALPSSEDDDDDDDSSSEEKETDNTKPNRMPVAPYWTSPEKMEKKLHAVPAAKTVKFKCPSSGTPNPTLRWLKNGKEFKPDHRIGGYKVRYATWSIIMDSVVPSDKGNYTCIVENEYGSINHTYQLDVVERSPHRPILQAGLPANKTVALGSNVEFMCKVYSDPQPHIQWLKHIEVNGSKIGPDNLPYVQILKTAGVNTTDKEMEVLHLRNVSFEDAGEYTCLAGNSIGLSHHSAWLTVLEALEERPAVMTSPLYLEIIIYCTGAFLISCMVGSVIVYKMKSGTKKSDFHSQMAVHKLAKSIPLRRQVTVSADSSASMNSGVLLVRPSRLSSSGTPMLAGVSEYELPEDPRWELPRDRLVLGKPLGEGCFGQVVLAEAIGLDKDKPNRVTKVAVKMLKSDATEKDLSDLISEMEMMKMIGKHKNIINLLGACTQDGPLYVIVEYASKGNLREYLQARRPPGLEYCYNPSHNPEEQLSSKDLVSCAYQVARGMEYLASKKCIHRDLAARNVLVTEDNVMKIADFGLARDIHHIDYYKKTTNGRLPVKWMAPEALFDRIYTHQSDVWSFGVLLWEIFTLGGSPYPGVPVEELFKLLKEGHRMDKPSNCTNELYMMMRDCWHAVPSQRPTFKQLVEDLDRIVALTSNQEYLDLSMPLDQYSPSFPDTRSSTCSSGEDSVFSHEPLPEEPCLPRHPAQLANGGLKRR

Cc1nc(Nc2ncc(C(=O)Nc3c(C)cccc3Cl)s2)cc(N2CCN(CCO)CC2)n1 [DASATINIB, dasatinib, reference compound]
half-life [1]: 7.5 min | half-life [2]: 11.9 min | half-life [3]: 9.2 min

Cc1cc2c(F)c(Oc3ncnc(Nc4ccc(N5C[C@@H](C)N[C@@H](C)C5)cc4)c3C#N)ccc2[nH]1 [Compound 17]
inhibition at 1 µM (FGFR1(h)): 100% | inhibition at 1 µM (KDR(h)): 96% | GI50 (KG1a; Homo sapiens, KG-1a): 0.74 nM | GI50 (SNU16; Homo sapiens, SNU-16, 72 h): 20 nM | GI50 (Kato III; Homo sapiens, KATO III, 72 h): 113 nM | GI50 (RT112; Homo sapiens, RT-112, 72 h): 83 nM | BWC (%) (TG1a Human AML Xenograft): −5.7% | T/C (%) (day14) (TG1a Human AML Xenograft): −79.5%

Cc1cc2c(F)c(Oc3ncnc(Nc4ccc(N5CCN6CCCCC6C5)cc4)c3C#N)cc(F)c2[nH]1 (stereo not drawn) [Compound 51]
inhibition at 1 µM (FGFR1(h)): 101% | inhibition at 1 µM (KDR(h)): 80% | GI50 (KG1a; Homo sapiens, KG-1a): 1.62 nM | GI50 (SNU16; Homo sapiens, SNU-16, 72 h): 66 nM | GI50 (Kato III; Homo sapiens, KATO III, 72 h): 208 nM | GI50 (RT112; Homo sapiens, RT-112, 72 h): 73 nM

Cc1cc2c(F)c(Oc3ncnc(Nc4ccc(N5C[C@@H](C)N[C@@H](C)C5)nc4)c3C#N)cc(F)c2[nH]1 [Compound 61]
GI50 (KG1a; Homo sapiens, KG-1a): 4 nM | GI50 (SNU16; Homo sapiens, SNU-16, 72 h): 75 nM

Cc1cc2c(F)c(Oc3ncnc(Nc4ccc(N5C[C@@H](C)N(C)[C@@H](C)C5)cc4)c3C#N)cc(F)c2[nH]1 [Compound 45]
inhibition at 1 µM (FGFR1(h)): 101% | inhibition at 1 µM (KDR(h)): 73% | GI50 (KG1a; Homo sapiens, KG-1a): 0.43 nM | GI50 (SNU16; Homo sapiens, SNU-16, 72 h): 15 nM | GI50 (Kato III; Homo sapiens, KATO III, 72 h): 79 nM | GI50 (RT112; Homo sapiens, RT-112, 72 h): 37 nM | BWC (%) (TG1a Human AML Xenograft): −11.7% | T/C (%) (day14) (TG1a Human AML Xenograft): 4.9%

CCC(=O)Nc1ccc(Nc2ncnc(Oc3cc(F)c4[nH]c(C)cc4c3F)c2C#N)cc1 [Compound 57]
GI50 (KG1a; Homo sapiens, KG-1a): 15 nM | GI50 (SNU16; Homo sapiens, SNU-16, 72 h): 6 nM

CCN1CCN(c2ccc(Nc3ncnc(Oc4cc(F)c5[nH]c(C)cc5c4F)c3C#N)cc2)CC1C (stereo not drawn) [Compound 48]
inhibition at 1 µM (FGFR1(h)): 100% | inhibition at 1 µM (KDR(h)): 84% | GI50 (KG1a; Homo sapiens, KG-1a): 0.55 nM | GI50 (SNU16; Homo sapiens, SNU-16, 72 h): 35 nM | GI50 (Kato III; Homo sapiens, KATO III, 72 h): 152 nM | GI50 (RT112; Homo sapiens, RT-112, 72 h): 57 nM | BWC (%) (TG1a Human AML Xenograft): −3.8% | T/C (%) (day14) (TG1a Human AML Xenograft): −72.8%

Cc1cc2c(F)c(Oc3ncnc(Nc4ccc(N5CCN(CCO)CC5)cc4)c3C#N)cc(F)c2[nH]1 [Compound 31]
inhibition at 1 µM (FGFR1(h)): 102% | inhibition at 1 µM (KDR(h)): 95% | GI50 (KG1a; Homo sapiens, KG-1a): 0.35 nM | GI50 (SNU16; Homo sapiens, SNU-16, 72 h): 32 nM | GI50 (Kato III; Homo sapiens, KATO III, 72 h): 205 nM | GI50 (RT112; Homo sapiens, RT-112, 72 h): 171 nM

CCN1[C@H](C)CN(c2ccc(Nc3ncnc(Oc4cc(F)c5[nH]c(C)cc5c4F)c3C#N)cc2)C[C@@H]1C [Compound 47]
inhibition at 1 µM (FGFR1(h)): 101% | inhibition at 1 µM (KDR(h)): 74% | GI50 (KG1a; Homo sapiens, KG-1a): 0.5 nM | GI50 (SNU16; Homo sapiens, SNU-16, 72 h): 22 nM | GI50 (Kato III; Homo sapiens, KATO III, 72 h): 123 nM | GI50 (RT112; Homo sapiens, RT-112, 72 h): 48 nM

C/C=C/C(=O)Nc1ccc(Nc2ncnc(Oc3cc(F)c4[nH]c(C)cc4c3F)c2C#N)cc1 [Compound 60]
GI50 (KG1a; Homo sapiens, KG-1a): 101 nM | GI50 (SNU16; Homo sapiens, SNU-16, 72 h): 92 nM

C=CC(=O)Nc1cccc(Nc2ncnc(Oc3cc(F)c4[nH]c(C)cc4c3F)c2C#N)c1 [Compound 53]
inhibition at 1 µM (FGFR1(h)): 100% | inhibition at 1 µM (KDR(h)): 93% | GI50 (KG1a; Homo sapiens, KG-1a): 3.59 nM | GI50 (SNU16; Homo sapiens, SNU-16, 72 h): 28 nM | GI50 (Kato III; Homo sapiens, KATO III, 72 h): 152 nM | GI50 (RT112; Homo sapiens, RT-112, 72 h): 94 nM

Cc1cc2c(F)c(Oc3ncnc(Nc4ccc(N5[C@H](C)CNC[C@@H]5C)cc4)c3C#N)cc(F)c2[nH]1 [Compound 49]
inhibition at 1 µM (FGFR1(h)): 101% | inhibition at 1 µM (KDR(h)): 82% | GI50 (KG1a; Homo sapiens, KG-1a): 0.6 nM | GI50 (SNU16; Homo sapiens, SNU-16, 72 h): 24 nM | GI50 (Kato III; Homo sapiens, KATO III, 72 h): 86 nM | GI50 (RT112; Homo sapiens, RT-112, 72 h): 48 nM

Cc1cc2c(F)c(Oc3ncnc(Nc4ccc(N5CCN[C@@H](C)C5)cc4)c3C#N)cc(F)c2[nH]1 [Compound 33]
inhibition at 1 µM (FGFR1(h)): 101% | inhibition at 1 µM (KDR(h)): 89% | GI50 (KG1a; Homo sapiens, KG-1a): 0.28 nM | GI50 (SNU16; Homo sapiens, SNU-16, 72 h): 12 nM | GI50 (Kato III; Homo sapiens, KATO III, 72 h): 88 nM | GI50 (RT112): 126 nM

Cc1cc2c(F)c(Oc3ncnc(Nc4ccc(NC(=O)CN5CCOCC5)cc4)c3C#N)cc(F)c2[nH]1 [Compound 58]
GI50 (KG1a; Homo sapiens, KG-1a): 101 nM | GI50 (SNU16; Homo sapiens, SNU-16, 72 h): 122 nM

Cc1cc2c(F)c(Oc3ncnc(Nc4ccc(N5CCNCC5)cc4)c3C#N)cc(F)c2[nH]1 [Compound 14]
inhibition at 1 µM (FGFR1(h)): 99% | inhibition at 1 µM (KDR(h)): 93% | GI50 (KG1a; Homo sapiens, KG-1a): 1.6 nM | GI50 (SNU16; Homo sapiens, SNU-16, 72 h): 23 nM | GI50 (Kato III; Homo sapiens, KATO III, 72 h): 137 nM | GI50 (RT112; Homo sapiens, RT-112, 72 h): 76 nM | BWC (%) (TG1a Human AML Xenograft): −4.0% | T/C (%) (day14) (TG1a Human AML Xenograft): −60.6%

Cc1cc2c(F)c(Oc3ncnc(Nc4ccc(N5CCN6CCCC6C5)cc4)c3C#N)cc(F)c2[nH]1 (stereo not drawn) [Compound 50]
inhibition at 1 µM (FGFR1(h)): 101% | inhibition at 1 µM (KDR(h)): 88% | GI50 (KG1a; Homo sapiens, KG-1a): 2.91 nM | GI50 (SNU16; Homo sapiens, SNU-16, 72 h): 52 nM | GI50 (Kato III; Homo sapiens, KATO III, 72 h): 174 nM | GI50 (RT112; Homo sapiens, RT-112, 72 h): 49 nM

Cc1cc2c(F)c(Oc3ncnc(Nc4ccc(N5CCN(C)C(C)C5)cc4)c3C#N)cc(F)c2[nH]1 (stereo not drawn) [Compound 46]
inhibition at 1 µM (FGFR1(h)): 101% | inhibition at 1 µM (KDR(h)): 90% | GI50 (KG1a; Homo sapiens, KG-1a): 1.37 nM | GI50 (SNU16; Homo sapiens, SNU-16, 72 h): 22 nM | GI50 (Kato III; Homo sapiens, KATO III, 72 h): 111 nM | GI50 (RT112; Homo sapiens, RT-112, 72 h): 48 nM

C=CC(=O)Nc1ccc(Nc2ncnc(Oc3cc(F)c4[nH]c(C)cc4c3F)c2C#N)cc1 [Compound 56]
inhibition at 1 µM (FGFR1(h)): 101% | inhibition at 1 µM (KDR(h)): 94% | GI50 (KG1a; Homo sapiens, KG-1a): 5.59 nM | GI50 (SNU16; Homo sapiens, SNU-16, 72 h): 24 nM | GI50 (Kato III; Homo sapiens, KATO III, 72 h): 106 nM | GI50 (RT112; Homo sapiens, RT-112, 72 h): 134 nM

Cc1cc2c(F)c(Oc3ncnc(Nc4ccc(NC(=O)CN5CCN(C)CC5)cc4)c3C#N)cc(F)c2[nH]1 [Compound 59]
GI50 (KG1a; Homo sapiens, KG-1a): 31 nM | GI50 (SNU16; Homo sapiens, SNU-16, 72 h): 79 nM

Cc1cc2c(F)c(Oc3ncnc(Nc4ccc(N5CCN[C@@H](C)C5)cc4)c3C#N)cc(F)c2[nH]1 [Compound 34]
% Inhibition at 1 μM FGFR1(h) (FGFR1(h)): 100% | % Inhibition at 1 μM KDR(h) (KDR(h); 1 μM): 89% | GI50 (KG1a): 0.28 nM | GI50 (SNU16): 22 nM | GI50 (Kato III): 98 nM | GI50 (RT112): 52 nM
